Laboratory results taken from patent publication US9451775B2, “Heterocyclic compounds as pesticides” (Bayer Intellectual Property GmbH, priority 2008, dated 2016).

Experiments:
[1] = logP determination by HPLC (formic acid method); format: physicochemical; conditions: reversed-phase HPLC column (C18), pH 3.4, HPLC on reversed-phase column (C18), acidic range (pH 3.4), 55° C.; read-out: logP (HCOOH)
Method in brief: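 Reversed-phase C18 HPLC at 55 °C, pH 3.4, with a 4.25 min gradient from 10% to 95% acetonitrile (formic acid-modified water/acetonitrile phases). logP was derived from retention time by linear interpolation between unbranched alkan-2-ones (C3-C16) of known logP.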

[2] = system: green peach aphid (Myzus persicae); assay: Myzus test (spray treatment); format: in vivo; conditions: foliar, application rate of 500 g/ha, sprayed Chinese cabbage leaf discs, read-out: activity (effect in %, aphids killed)
Experimental: Myzus Test (Spray Treatment)
• Solvents: 78.0 parts by weight of acetone • 1.5 parts by weight of dimethylformamide • Emulsifier: 0.5 part by weight of alkylaryl polyglycol ether
To produce a suitable preparation of active compound, 1 part by weight of active compound is mixed with the stated amounts of solvents and emulsifier, and the concentrate is diluted with emulsifier-containing water to the desired concentration.
Discs of leaves of Chinese cabbage (Brassica pekinensis) which are heavily infested by all stages of the green peach aphid (Myzus persicae) are sprayed with an active compound preparation of the desired concentration.
After the desired period of time, the effect in % is determined. 100% means that all aphids have been killed; 0% means that none of the aphids have been killed.

SMILES	chromatographic logP [1]	pest or weed control at 500 g/ha [2] [%]
Cc1nc(-c2cccnc2)sc1-c1cccc(N2CC(C)OC(C)C2)n1 (stereo not shown) [compound 98]	3.55	≥ 80
Cc1nc(-c2cccnc2)sc1-c1ccc(C(F)(F)F)cn1 [compound 99]	3.14	≥ 80
COC(=O)c1oc(-c2sc(-c3cccnc3)nc2C)nc1C [compound 100]	2.55	≥ 80
Cc1nc(-c2cccnc2)sc1-c1cccc(C2=NOCCO2)c1 [compound 101]	2.42	≥ 80
Cc1nc(-c2cccnc2)sc1-c1nnc(C(F)(F)F)s1 [compound 102]	2.85	≥ 80
Cc1nc(-c2cccnc2)sc1-c1ccn(C(=O)NC(C)C)n1 [compound 103]	2.55	≥ 80
Cc1nc(-c2cccnc2)sc1-c1ccn(C(=S)NC2CC2)n1 [compound 104]	3.23	≥ 80
Cc1nc(-c2cccnc2)sc1-c1ccnc(CC2CC2)n1 [compound 105]	2.69	≥ 80
Cc1nc(-c2cccnc2)sc1-c1ccn(-c2nnc(C3CCC3)s2)n1 [compound 106]	3.42	≥ 80
Cc1nc(-c2cccnc2)sc1-c1ccn(-c2nnc(C3CCCC3)s2)n1 [compound 107]	3.85	≥ 80
COc1nc(-n2ccc(-c3sc(-c4cccnc4)nc3C)n2)nc2c1CCC2 [compound 108]	3.18	≥ 80
Cc1nc(-c2cccnc2)sc1-c1ccnc(C(F)(F)F)n1 [compound 109]	2.72	≥ 80
Cc1nc(-c2cccnc2)sc1-c1ccn(-c2nnc(C(F)Cl)s2)n1 (stereo not shown) [compound 110]	3.24	≥ 80
Cc1nc(-c2cccnc2)sc1-c1cc(C(F)(F)F)ncn1 [compound 111]	2.8	≥ 80
COC(=O)c1nc(-c2sc(-c3cccnc3)nc2C)ccc1Cl [compound 112]	2.64	≥ 80
COCC(C)NC(=O)n1ccc(-c2sc(-c3cccnc3)nc2C)n1 (stereo not shown) [compound 113]	2.23	≥ 80
CCCOCC(C)NC(=O)n1ccc(-c2sc(-c3cccnc3)nc2C)n1 (stereo not shown) [compound 114]	3.27	≥ 80
CCOCCNC(=O)n1ccc(-c2sc(-c3cccnc3)nc2C)n1 [compound 115]	2.2	≥ 80
CCC(COC)NC(=O)n1ccc(-c2sc(-c3cccnc3)nc2C)n1 (stereo not shown) [compound 116]	2.61	≥ 80
Cc1nc(-c2cccnc2)sc1-c1ccn(C(=O)NC(C)COC(C)C)n1 (stereo not shown) [compound 117]	3.18	≥ 80
CCOCC(C)NC(=O)n1ccc(-c2sc(-c3cccnc3)nc2C)n1 (stereo not shown) [compound 118]	2.69	≥ 80

SMILES	chromatographic logP [1]	pest or weed control at 500 g/ha [2] [%]
Cc1nc(-c2cccnc2)sc1-c1ccn(C(=O)NC(C)(C)C)n1 [compound 119]	3.23	≥ 80
Cc1nc(-c2cccnc2)sc1-c1ccn(C(=O)NCC(C)C)n1 [compound 120]	2.89	≥ 80
CCNC(=O)n1ccc(-c2sc(-c3cccnc3)nc2C)n1 [compound 121]	2.05	≥ 80
Cc1nc(-c2cccnc2)sc1-c1ccn(C(=O)NC2CCCCC2)n1 [compound 122]	3.56	≥ 80
CCOCCCNC(=O)n1ccc(-c2sc(-c3cccnc3)nc2C)n1 [compound 123]	2.46	≥ 80
Cc1nc(-c2cccnc2)sc1-c1ccn(C(=O)NC2CCCC2)n1 [compound 124]	3.09	≥ 80
Cc1nc(-c2cccnc2)sc1-c1ccn(C(=O)NC2CC2)n1 [compound 125]	2.08	≥ 80
COCCNC(=O)n1ccc(-c2sc(-c3cccnc3)nc2C)n1 [compound 126]	1.87	≥ 80
Cc1nc(-c2cccnc2)sc1-c1ccn(C(=O)NCC2CC2)n1 [compound 127]	2.57	≥ 80
Cc1nc(-c2cccnc2)sc1-c1ccn(C(=O)NCC(F)(F)F)n1 [compound 128]	2.38	≥ 80
CSCCNC(=O)n1ccc(-c2sc(-c3cccnc3)nc2C)n1 [compound 129]	2.34	≥ 80
Cc1nc(-c2cccnc2)sc1-c1ccn(C(=O)NC(C)(C)C(C)C)n1 [compound 130]	4.17	≥ 80
CCC(CC#N)NC(=O)n1ccc(-c2sc(-c3cccnc3)nc2C)n1 (stereo not shown) [compound 131]	2.14	≥ 80
CCCNC(=O)n1ccc(-c2sc(-c3cccnc3)nc2C)n1 [compound 132]	2.46	≥ 80
COC(C)(C)CNC(=O)n1ccc(-c2sc(-c3cccnc3)nc2C)n1 [compound 133]	2.53	≥ 80
C#CC(C)(C)NC(=O)n1ccc(-c2sc(-c3cccnc3)nc2C)n1 [compound 134]	2.69	≥ 80
COCCCNC(=S)n1ccc(-c2sc(-c3cccnc3)nc2C)n1 [compound 135]	3.28	≥ 80
Cc1nc(-c2cccnc2)sc1-c1ccn(C(=S)NC(C)c2ccccc2)n1 (stereo not shown) [compound 136]	4.41	≥ 80
CNC(=S)n1ccc(-c2sc(-c3cccnc3)nc2C)n1 [compound 137]	2.65	≥ 80
Cc1nc(-c2cccnc2)sc1-c1nc(-c2ccncc2)no1 [compound 138]	2.19	≥ 80
Cc1cccc(-c2noc(-c3sc(-c4cccnc4)nc3C)n2)n1 [compound 139]	2.61	≥ 80

SMILES	chromatographic logP [1]	pest or weed control at 500 g/ha [2] [%]
Cc1nc(-c2cccnc2)sc1-c1ccn(C(=S)NCC(F)(F)F)n1 [compound 141]	3.42	≥ 80
Cc1nc(-c2cccnc2)sc1-c1ccnc(C(F)(F)C(F)(F)F)n1 [compound 142]	3.35	≥ 80
Cc1nc(-c2cccnc2)sc1-c1ccn(C(=S)NCC(C)C)n1 [compound 143]	4.28	≥ 80
Cc1nc(-c2cccnc2)sc1-c1ccc(C(F)(F)F)nc1 [compound 144]	2.72	≥ 80
Cc1noc(Cn2ccc(-c3sc(-c4cccnc4)nc3C)n2)n1 [compound 145]	1.71	≥ 80
Cc1nc(-c2cccnc2)sc1-c1ccn(Cc2ncccn2)n1 [compound 146]	1.43	≥ 80
c1cnc(Cn2ccc(-c3cnc(-c4cccnc4)s3)n2)nc1 [compound 147]	1.24	≥ 80
c1cncc(-c2ncc(-c3cccc(C4=NOCCO4)n3)s2)c1 [compound 148]	1.59	≥ 80
c1cncc(-c2ncc(-c3cccc(-n4ccnn4)n3)s2)c1 [compound 149]	1.85	≥ 80
Cc1nc(-c2cncnc2)sc1-c1cccc(-c2ncccn2)n1 [compound 150]	1.76	≥ 80
c1cnc(-c2cccc(-c3cnc(-c4cncnc4)s3)n2)nc1 [compound 151]	1.54	≥ 80
Cc1nc(-c2cncc(F)c2)sc1-c1cccc(-c2ncccn2)n1 [compound 152]	2.43	≥ 80
Fc1cncc(-c2ncc(-c3cccc(-c4ncccn4)n3)s2)c1 [compound 153]	2.11	≥ 80
Cc1nc(-c2cccnc2)sc1-c1cccc(-n2ccnn2)n1 [compound 154]	2.13	≥ 80
c1cncc(-c2ncc(-c3cccc(-n4nccn4)n3)s2)c1 [compound 155]	1.89	≥ 80
Cc1nc(-c2cccnc2)sc1-c1cccc(-n2nc(C(F)(F)F)n(C)c2=O)n1 [compound 156]	2.65	≥ 80
Cn1c(C(F)(F)F)nn(-c2cccc(-c3cnc(-c4cccnc4)s3)n2)c1=O [compound 157]	2.35	≥ 80
c1cncc(-c2nnc(-c3ccncc3)s2)c1 [compound 158]	1.41	≥ 80
FC(F)(F)Oc1cccc(-c2nnc(-c3cccnc3)s2)c1 [compound 159]	3.16	≥ 80
c1cnc(-n2ccc(-c3nnc(-c4cccnc4)s3)n2)nc1 [compound 160]	1.44	≥ 80
